According to PubChem BioAssay AID248 (DTP/NCI, 2004):
Toxic doses and inconclusive results are not listed.

Test system: L1210 leukemia ip in BDF1 mice, survival T/C
Test: NCI In Vivo Anticancer Drug Screen. Data for tumor model L1210 Leukemia (intraperitoneal) in B6D2F1 (BDF1) mice
Conditions: endpoint: mean survival time, higher = longer survival
In short: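 Mice bearing the transplanted tumor received compound or vehicle. Survival of the treated group was divided by that of the vehicle-treated control group to give the ratio.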

## COc1cc2c3c(c4ccc(O)cc4c2cc1OC)[C@@H](O)[C@@H]1CCCN1C3
dose: 2.5 mg/kg/injection, schedule: Q01DX005 (ip), vehicle: water
  T/C: 106 % of control
dose: 2.5 mg/kg/injection, schedule: Q01DX009 (ip), vehicle: water
  T/C: 95 % of control
dose: 2.5 mg/kg/injection, schedule: Q01DX015 (ip), vehicle: water
  T/C: 105 % of control
dose: 5.0 mg/kg/injection, schedule: Q01DX001 (ip), vehicle: water
  T/C: 98 % of control
dose: 5.0 mg/kg/injection, schedule: Q01DX005 (ip), vehicle: water
  T/C: 104 % of control
dose: 5.0 mg/kg/injection, schedule: Q01DX009 (ip), vehicle: water
  T/C: 119 % of control
dose: 5.0 mg/kg/injection, schedule: Q01DX009 (sc), vehicle: water
  T/C: 109 % of control
dose: 5.0 mg/kg/injection, schedule: Q01DX015 (ip), vehicle: water
  T/C: 120 % of control
dose: 5.0 mg/kg/injection, schedule: Q02DX005 (ip), vehicle: water
  T/C: 114 % of control
dose: 5.0 mg/kg/injection, schedule: Q## X003 (ip), vehicle: water
  T/C: 111 % of control
dose: 6.0 mg/kg/injection, schedule: Q01DX Z (ip), vehicle: water
  T/C: 124 % of control
dose: 6.7 mg/kg/injection, schedule: Q01DX015 (ip), vehicle: water
  T/C: 112 % of control
dose: 7.1 mg/kg/injection, schedule: Q01DX015 (ip), vehicle: water
  T/C: 112 % of control
dose: 10.0 mg/kg/injection, schedule: Q01DX001 (ip), vehicle: water
  T/C: 108 % of control
dose: 10.0 mg/kg/injection, schedule: Q01DX005 (ip), vehicle: water
  T/C: 109 % of control
dose: 10.0 mg/kg/injection, schedule: Q01DX009 (ip), vehicle: water
  T/C: 119 % of control
dose: 10.0 mg/kg/injection, schedule: Q01DX009 (oral), vehicle: water
  T/C: 114 % of control
dose: 10.0 mg/kg/injection, schedule: Q01DX009 (sc), vehicle: water
  T/C: 122 % of control
dose: 10.0 mg/kg/injection, schedule: Q01DX015 (ip), vehicle: water
  T/C: 112 % of control
dose: 10.0 mg/kg/injection, schedule: Q## X003 (ip), vehicle: water
  T/C: 101 % of control
dose: 12.0 mg/kg/injection, schedule: Q01DX Z (ip), vehicle: water
  T/C: 151 % of control
dose: 15.0 mg/kg/injection, schedule: Q01DX005 (ip), vehicle: water
  T/C: 117 % of control
dose: 15.0 mg/kg/injection, schedule: Q01DX009 (ip), vehicle: water
  T/C: 120 % of control
dose: 15.0 mg/kg/injection, schedule: Q01DX009 (sc), vehicle: water
  T/C: 119 % of control
dose: 15.0 mg/kg/injection, schedule: Q01DX015 (ip), vehicle: water
  T/C: 109 % of control
dose: 15.0 mg/kg/injection, schedule: Q02DX005 (ip), vehicle: water
  T/C: 124 % of control
dose: 15.0 mg/kg/injection, schedule: Q## X003 (ip), vehicle: water
  T/C: 119 % of control
dose: 20.0 mg/kg/injection, schedule: Q01DX001 (ip), vehicle: water
  T/C: 104 % of control
dose: 20.0 mg/kg/injection, schedule: Q01DX009 (ip), vehicle: water
  T/C: 114 % of control
dose: 20.0 mg/kg/injection, schedule: Q01DX009 (oral), vehicle: water
  T/C: 109 % of control
dose: 20.0 mg/kg/injection, schedule: Q01DX009 (sc), vehicle: water
  T/C: 88 % of control
dose: 20.0 mg/kg/injection, schedule: Q01DX Z (ip), vehicle: water
  T/C: 110 % of control
dose: 20.0 mg/kg/injection, schedule: Q## X003 (ip), vehicle: water
  T/C: 117 % of control
dose: 22.5 mg/kg/injection, schedule: Q01DX015 (ip), vehicle: water
  T/C: 123 % of control
dose: 25.0 mg/kg/injection, schedule: Q01DX015 (ip), vehicle: water
  T/C: 96 % of control
dose: 30.0 mg/kg/injection, schedule: Q01DX009 (oral), vehicle: water
  T/C: 100 % of control
dose: 40.0 mg/kg/injection, schedule: Q01DX001 (ip), vehicle: water
  T/C: 114 % of control

## CCCCOC(=O)CCCC(=O)OCCCC
dose: 100.0 mg/kg/injection, schedule: Q01DX009 (ip), vehicle: Klucel (hydroxypropylcellulose) (HPC)
  T/C: 98 % of control
dose: 100.0 mg/kg/injection, schedule: Q04DX003 (ip), vehicle: Klucel (hydroxypropylcellulose) (HPC)
  T/C: 100 % of control
dose: 200.0 mg/kg/injection, schedule: Q01DX009 (ip), vehicle: Klucel (hydroxypropylcellulose) (HPC)
  T/C: 97 % of control
dose: 200.0 mg/kg/injection, schedule: Q04DX003 (ip), vehicle: Klucel (hydroxypropylcellulose) (HPC)
  T/C: 101 % of control
dose: 400.0 mg/kg/injection, schedule: Q01DX009 (ip), vehicle: Klucel (hydroxypropylcellulose) (HPC)
  T/C: 95 % of control
dose: 400.0 mg/kg/injection, schedule: Q04DX003 (ip), vehicle: Klucel (hydroxypropylcellulose) (HPC)
  T/C: 101 % of control
